# Test system: HT-29 cells
# Test: HT-29 cell necrosis/necroptosis inhibition (TNF-α + SMAC mimetic + zVAD-FMK; CellTiter-Glo cell viability)
# Format: cell-based
# Details: Homo sapiens, HT-29, 20 h, read-out: EC50 (Cell activity; Necrosis/Necroptosis Inhibitory Activity, Compounds 1-142)
# Protocol: Compounds 1-319 (denoted as Compound Nos. 1 through 319 in Table 3 and 4) of the disclosure were tested for binding and cellular RIP1 inhibitory activity following the experimental procedures described below.
# • Cell line: HT-29 (ATCC® HTB-38™) • Culture medium: McCOY's 5A, Gibco, Cat No. 16600-082 • FBS, Gibco, Cat No. 10099-141C • Trypsin: Gibco, Cat No. 25200-056 • DMSO: Sigma, Cat No. 67-68-5, 1L • Assay plate: Corning #3903 • Compound dilution plate: Corning #3357 • Inducers: TNFα, GenScript, Cat No. Z01001-50, • SmacM, Cat. No., HY-15989, MedChemExpress (MCE) • Z_VAD FMK, TargetMol, T6013 • Cell Titer-Glo® Luminescent Cell Viability Assay Kit: Promega, Cat No. G7573 • EnVision: PerkinElmer, 2105-0010 Methods Cell Seeding
# 1. HT-29 cells were checked every day to make sure that they were healthy and growing as expected. They were subjected to sub-culturing when they were approximately 80% confluent.
# 2. The culture medium, McCOY's 5A medium (Gibco, Cat No. 16600-082) with 10% fetal bovine serum or FBS (Gibco, Cat No. 10099-141C), was pre-warmed in a 37° C. water bath for at least 30 min.
# 3. When the cells had reached a desired level of confluency of 80% in a T75 flask, the medium was aspirated, and the cells were washed with warm phosphate buffered saline or PBS two times.
# 4. 2-3 ml fresh warm trypsin (Gibco, Cat No. 25200-056) solution was added to the washed cells. The flask with the cells was transferred to a 37° C. incubator.
# 5. After 5 minutes, the side of the flask was tapped, and the flask was examined under a microscope for detachment of the cells to the flask. If necessary, the cells were kept in the incubator for an additional 5-10 minutes, with occasional tapping, until lifting was complete.
# 6. The trypsin reaction was neutralized by transferring 6-9 ml cell culture medium to sterile 15 ml conical tubes, and by centrifuging the cell culture at 300×g for 7 minutes to pellet the cells (supernatant decanted).
# 7. The cells were resuspended in fresh cell culture medium and the cell counting was performed using a hemocytometer.
# 8. 100 μl of the resuspended cell culture medium containing ˜5,000 cells were transferred into each well of the sterile 96-well cell culture plate (Corning 3903) and cultured overnight at 37° C. with 5% CO2.
# Compound Titration and Treatment
# 1. All test compounds were dissolved in DMSO (Dimethyl sulfoxide) to create a 20 mM stock.
# 2. 3 μl of each compound 20 mM stock was mixed with 27 μl DMSO, and the compound solution was further diluted at a titration ratio of 1:3 (20 μl compound solution+40 μl DMSO) till the 10 points end.
# 3. All culture medium was removed from assay plates filled with HT-29 cell cultures. The cells were then washed with 1 PBS, and resuspended in fresh, FBS-free McCOY's 5A medium containing a cocktail of TNF-α (10 ng/ml), a SMAC mimetic compound (6 μM) and Z-VAD-fluoromethylketone or zVAD-FMK (10 μM) to stimulate the HT-29 cells to increase RIP1 kinase levels and necroptosis.
# 4. 0.5 μL of the diluted compound solution was added to the corresponding 96-well assay plates.
# 5. The assay plates were incubated for 20 hours at 37° C. with 5% CO2.
# 1. The CellTiter-Glo® Luminescent Cell Viability Assay was employed to detect the ATP levels of viable HT-29 cells.
# 2. The CellTiter-Glo® buffer and the lyophilized substrate were equilibrated to room temperature prior to use.
# 3. The CellTiter-Glo® substrate was resuspended with CellTiter-Glo® buffer, then mixed by gently vortexing to obtain a homogeneous solution.
# 4. 20 μl the enzyme/substrate mixture was transferred by multi-channel pipetting into 96-well assay plates.
# 5. The assay plates were placed on an orbital shaker and the contents were shaken for 3 minutes to induce cell lysis.
# 6. The assay plates were incubated at room temperature for 10 minutes to stabilize the luminescent signal.
# 7. The luminescence signals were read and recorded with EnVision.
# 8. The geometric mean EC50 values were calculated from 10 points response dose with duplicates. In
row,Compound,EC50 [nM]
1,"Cc1nn(C[C@H]2CO2)c(C)c1-c1nc(N2CCN(C(=O)N3N=CC[C@H]3c3cc(F)cc(C#N)c3)CC2)ncc1F [Compound 134, 3-((S)-1-(4-(4-(3,5-dimethyl-1-(((S)-oxiran-2-yl)methyl)-1H-pyrazol-4-yl)-5-fluoropyrimidin-2-yl)piperazine-1-carbonyl)-4,5-dihydro-1H-pyrazol-5-yl)-5-fluorobenzonitrile]",0.1 to 100
2,"CC(=O)Nc1c(C)nn(-c2nc(N3CCN(C(=O)N4N=CC[C@H]4c4cc(F)cc(C#N)c4)CC3)ncc2F)c1C [Compound 142, (S)—N-(1-(2-(4-(5-(3-cyano-5-fluorophenyl)-4,5-dihydro-1H-pyrazole-1-carbonyl)piperazin-1-yl)-5-fluoropyrimidin-4-yl)-3,5-dimethyl-1H-pyrazol-4-yl)acetamide]",0.1 to 100

# Same assay, conditions: Homo sapiens; HT-29 cells, TNF-α 10 ng/ml + SMAC mimetic 6 μM + zVAD-FMK 10 μM, 20 hours; geometric mean, 10 points in duplicate; read-out: EC50 (Cell activity; Necrosis/Necroptosis Inhibitory Activity, Compounds 1-142)
row,Compound,EC50 [nM]
1,Cc1nn(CC(N)=O)cc1-c1nc(N2CCN(C(=O)N3N=CC[C@H]3c3cc(F)cc(C#N)c3)CC2)ncc1F [Compound 82],0.1 to 100
2,"N#Cc1cc(F)cc([C@@H]2CC=NN2C(=O)N2CCN(c3nccc(-n4cc(C(N)=O)cn4)n3)CC2)c1 [Compound 102, (S)-1-(2-(4-(5-(3-cyano-5-fluorophenyl)-4,5-dihydro-1H-pyrazole-1-carbonyl)piperazin-1-yl)pyrimidin-4-yl)-1H-pyrazole-4-carboxamide]",0.1 to 100
3,"Cc1nn(CC(N)=O)cc1-c1nc(N2CCN(C(=O)N3N=CC[C@H]3c3cc(F)cc(F)c3)CC2)ncc1F [Compound 18, (S)-2-(4-(2-(4-(5-(3,5-difluorophenyl)-4,5-dihydro-1H-pyrazole-1-carbonyl)piperazin-1-yl)-5-fluoropyrimidin-4-yl)-3-methyl-1H-pyrazol-1-yl)acetamide]",0.1 to 100
4,"Cn1nncc1-c1nc(N2CCN(C(=O)N3N=CC[C@H]3c3cc(F)cc(F)c3)CC2)ncc1F [Compound 44, (S)-(5-(3,5-difluorophenyl)-4,5-dihydro-1H-pyrazol-1-yl)(4-(5-fluoro-4-(1-methyl-1H-1,2,3-triazol-5-yl)pyrimidin-2-yl)piperazin-1-yl)methanone]",0.1 to 100
5,"O=C(N1CCN(c2nccc(-n3nnnc3C(F)(F)F)n2)CC1)N1N=CC[C@H]1c1cccc(F)c1 [Compound 103, (S)-(5-(3-fluorophenyl)-4,5-dihydro-1H-pyrazol-1-yl)(4-(4-(5-(trifluoromethyl)-1H-tetrazol-1-yl)pyrimidin-2-yl)piperazin-1-yl)methanone]",0.1 to 100

# Same assay, conditions: Homo sapiens; HT-29 cells, TNF-α 10 ng/ml + SMAC mimetic 6 μM + zVAD-FMK 10 μM, 20 hours; geometric mean, 10 points in duplicate; read-out: EC50 (Cell activity; Necrosis/Necroptosis Inhibitory Activity, Compounds 143-323)
row,Compound,EC50 [nM]
1,"Cc1nn(-c2ccnc(N3CCN(C(=O)N4N=CC[C@H]4c4cc(F)cc(C#N)c4)CC3)n2)c(C)c1S(C)(=O)=O [Compound 206, (S)-3-(1-(4-(4-(3,5-dimethyl-4-(methylsulfonyl)-1H-pyrazol-1-yl)pyrimidin-2-yl)piperazine-1-carbonyl)-4,5-dihydro-1H-pyrazol-5-yl)-5-fluorobenzonitrile]",0.1 to 100
2,"[2H]C1(c2cc(F)cc(F)c2)CC=NN1C(=O)N1CCN(c2ncc(F)c(-n3nc(C)nc3C)n2)CC1 (centres unmarked) [Compound 262, (5-(3,5-difluorophenyl)-4,5-dihydro-1H-pyrazol-1-yl-5-d)(4-(4-(3,5-dimethyl-1H-1,2,4-triazol-1-yl)-5-fluoropyrimidin-2-yl)piperazin-1-yl)methanone]",0.1 to 100
3,"Cc1nc(C)n(-c2ncc(F)c(N3CCN(C(=O)N4N=CC[C@H]4c4cc(F)cc(F)c4)CC3)n2)n1 [Compound 257, (S)-(5-(3,5-difluorophenyl)-4,5-dihydro-1H-pyrazol-1-yl)(4-(2-(3,5-dimethyl-1H-1,2,4-triazol-1-yl)-5-fluoropyrimidin-4-yl)piperazin-1-yl)methanone]",0.1 to 100
4,"N#Cc1cc(F)cc([C@@H]2CC=NN2C(=O)N2CCN(c3nc(-n4cc(C#N)cn4)ncc3F)CC2)c1 [Compound 219, (S)-1-(4-(4-(5-(3-cyano-5-fluorophenyl)-4,5-dihydro-1H-pyrazole-1-carbonyl)piperazin-1-yl)-5-fluoropyrimidin-2-yl)-1H-pyrazole-4-carbonitrile]",0.1 to 100
5,"Cc1cnc([C@@H]2CC=NN2C(=O)N2CCN(c3ncc(F)c(-c4nc(C#N)nn4C)n3)CC2)s1 [Compound 151, (S)-5-(5-fluoro-2-(4-(5-(5-methylthiazol-2-yl)-4,5-dihydro-1H-pyrazole-1-carbonyl)piperazin-1-yl)pyrimidin-4-yl)-1-methyl-1H-1,2,4-triazole-3-carbonitrile]",0.1 to 100
6,"Cc1nc(C)n(-c2ncc(F)c(N3CCN(C(=O)N4N=CC[C@H]4c4cc(F)cc(C#N)c4)CC3)n2)n1 [Compound 258, (S)-3-(1-(4-(2-(3,5-dimethyl-1H-1,2,4-triazol-1-yl)-5-fluoropyrimidin-4-yl)piperazine-1-carbonyl)-4,5-dihydro-1H-pyrazol-5-yl)-5-fluorobenzonitrile]",0.1 to 100
7,"Cc1nc(C(N)=O)nn1-c1nc(N2CCN(C(=O)N3N=CC[C@H]3c3cncc(F)c3)CC2)ncc1F [Compound 253, (S)-1-(5-fluoro-2-(4-(5-(5-fluoropyridin-3-yl)-4,5-dihydro-1H-pyrazole-1-carbonyl)piperazin-1-yl)pyrimidin-4-yl)-5-methyl-1H-1,2,4-triazole-3-carboxamide]",0.1 to 100
8,"Cc1nnc(-c2nc(N3CCN(C(=O)N4N=CC[C@H]4c4cncc(F)c4)CC3)ccc2F)s1 [Compound 173, (S)-(4-(5-fluoro-6-(5-methyl-1,3,4-thiadiazol-2-yl)pyridin-2-yl)piperazin-1-yl)(5-(5-fluoropyridin-3-yl)-4,5-dihydro-1H-pyrazol-1-yl)methanone]",0.1 to 100
9,"Cc1nnc(-c2nc(N3CCN(C(=O)N4N=CC[C@H]4c4cc(F)cc(C#N)c4)CC3)ncc2F)n1C [Compound 179, (S)-3-(1-(4-(4-(4,5-dimethyl-4H-1,2,4-triazol-3-yl)-5-fluoropyrimidin-2-yl)piperazine-1-carbonyl)-4,5-dihydro-1H-pyrazol-5-yl)-5-fluorobenzonitrile]",0.1 to 100
10,Cc1cnc(C2CC=NN2C(=O)N2CCN(c3ncc(F)c(-c4nnc(C)s4)n3)CC2)s1 (centres unmarked) [Compound 316],0.1 to 100
11,"Cc1nc(C)n(-c2nc(N3CCN(C(=O)N4N=CCC4c4cnc(C)s4)CC3)ncc2Cl)n1 (centres unmarked) [Compound 223, (4-(5-chloro-4-(3,5-dimethyl-1H-1,2,4-triazol-1-yl)pyrimidin-2-yl)piperazin-1-yl)(5-(2-methylthiazol-5-yl)-4,5-dihydro-1H-pyrazol-1-yl)methanone]",0.1 to 100
12,"O=C(N1CCN(c2ncc(F)c(-n3nccc3C(F)(F)F)n2)CC1)N1N=CC[C@H]1c1cc(F)cc(F)c1 [Compound 315, (S)-(5-(3,5-difluorophenyl)-4,5-dihydro-1H-pyrazol-1-yl)(4-(5-fluoro-4-(5-(trifluoromethyl)-1H-pyrazol-1-yl)pyrimidin-2-yl)piperazin-1-yl)methanone]",0.1 to 100
13,"N#Cc1cnn(-c2ncc(F)c(N3CCN(C(=O)N4N=CC[C@H]4c4cc(F)cc(F)c4)CC3)n2)c1 [Compound 218, (S)-1-(4-(4-(5-(3,5-difluorophenyl)-4,5-dihydro-1H-pyrazole-1-carbonyl)piperazin-1-yl)-5-fluoropyrimidin-2-yl)-1H-pyrazole-4-carbonitrile]",0.1 to 100

# Source: patent US12454529B2, “Piperazine cyclic ureas” (SIRONAX LTD., priority 2020, dated 2025)
